Laboratory results taken from patent US20050267169A1, “Watersoluble prodrugs of propofol” (priority 2002, published 2005).
pIC50: −log10 of the molar value. In brackets after ≈: the same amount, converted by molar mass. Structures can show the parent of a compound that is named as a salt. Marks after values point to notes of the source that are not given here.

Tests used:
[1] = Chemical hydrolysis in 0.05 M phosphate buffers at 37° C.; format: physicochemical; details: phosphate buffer, pH 7.4, 0.05 M phosphate buffer pH 7.4, 37° C.; for half-life: read-out: Half-lives at 37° C., pH 7.4 buffer (converted)
Protocol: The hydrolysis of the propofol esters 6a-d was studied in aqueous buffer solutions (0.05 M phosphate buffers; ionic strength of 0.5 maintained by adding a calculated amount of KCl) at pH values of 4, 6, and 7.4 and temperature of 37±0.2° C. The reactions were initiated by adding 100 μl of a stock solution of the ester (13 mg/mL methanol) to 20 mL of the buffer solution preheated at 37° C., in screw-capped test tubes (final concentration about 2.0×10^−4 M). The solutions were kept in a water bath at a constant temperature, and at appropriate intervals aliquots of 20 μL were withdrawn and analyzed by HPLC. Pseudo-first-order rate constants for the hydrolysis were determined from the slopes of linear plots of the logarithm of residual propofol ester against time.
The kinetics of hydrolysis of the derivatives 6a-d were determined in 0.05 M phosphate buffers at pHs 4.0, 6.0 and 7.4 at 37° C. as well as in rat serum solution and in the presence of porcine liver esterase.

[2] = Hydrolysis in phosphate buffer containing 50% rat serum at 37° C.; format: in vitro ADME; details: for half-life: 50% rat serum in phosphate buffer, 50% rat serum in pH 7.4 phosphate buffer, read-out: Half-lives at 37° C., 50% rat serum (converted); for Cleaved quantitatively to the parent drug in rat serum: rat serum solution
Protocol: Each reaction were initiated by adding 100 μL of the methanolic stock solution of compound under examination to 1.6 mL of preheated serum solution (final concentration about 1×10^−3 M) and the mixture was maintained in water bath at 37° C. At appropriate times, 100 μL samples were withdrawn and added to 500 μL of cold acetonitrile in order to deproteinize the serum. After mixing and centrifugation (10 min at 4000 rpm), 20 μL of the clear supematant were filtered through 0.2 μm membrane filter (Waters, PTFE 0.2 μm) and analyzed by HPLC.

GABAA receptor = test: In vitro [35S]TBPS binding assay, unwashed rat cortical membranes; details: for pIC50: unwashed rat brain (cortical) membranes
Protocol: The data is expressed as a percentage of binding measured in the presence of solvent and are means of two experiments.
Rats were killed by decapitation and their brains rapidly removed on ice. The cerebral cortex was dissected out and homogenized in 50 volumes of ice-cold 50 mM Tris-citrate buffer (pH 7.4 at 25° C.) containing 100 mM CaCl2 using a Polytron PT 10 (setting 5, for 20 sec) and centrifuged at 20.000×g for 20 min. The resulting pellet was resuspended in 50 volumes of 50 mM Tris-citrate buffer (pH 7.4 at 25° C.) and used for the assay. [^35S]TBPS binding was determined in a final volume of 500 μL consisting of. 200 μL of tissue homogenate (0.20-0.25 mg protein), 50 μL of [^35S]TBPS (final assay concentration of 1 nM), 50 μl 2 M NaCl, 50 μL of drugs or solvent and buffer to volume. Incubations (25° C.) were initiated by addition of tissue and terminated 90 min later by a rapid filtration through glass-fiber filter strips (Whatman GF/B, Clifton, N.J.), which were rinsed twice with a 4 mL portion of ice-cold Tris-citrate buffer using a Cell Harvester filtration manifold (model M-24m Brandel, Gaithersburg, Md.). Filter bound radioactivity was quantitated by liquid scintillation spectrometry. […] Protein content was determined by the method of Lowry^20 using bovine serum albumin as a standard.

porcine liver esterase = test: Hydrolysis in the presence of porcine liver esterase; format: in vitro ADME; details: for half-life: pig, porcine liver esterase, read-out: Half-lives at 37° C., Porcine liver esterase (13 U/mL) (converted); for half-life / Cleaved quantitatively to the parent drug in porcine liver esterase solution: 37° C.
Source text: Hydrolysis of compounds 6a-d in the presence of porcine liver esterase was followed using a reported procedure (Bonina F P, Arenare L, Palagiano F, Saija A, Nava F, Trombetta D, De Caprariis P. 1998. Synthesis, stability, and pharmacological evaluation of nipecotic acid prodrugs. J. Pharm. Sci. 8: 561-567.).

[3] = Solubility in deionized water at 25° C.; format: physicochemical; details: 72 h equilibration; for solubility at 72 h: thermodynamic from solid, read-out: Solubility (mg/mL) in deionized water
Protocol: The resulting mixture was vortexed for 10 min and then mechanically shaken in a thermostatic bath shaker (100 rpm) for 72 h to attain equilibrium. Next, the mixture was filtered through a 0.45 μm membrane filter (Millipore®, cellulose acetate) and an aliquot was diluted with an appropriate amount of water and analyzed for the aminoacid ester prodrug content spectrophotometrically at 210 nm. All of the manipulations were made without removal of the test tubes from the water bath, using thermostated pipettes, syringes, and buffer solutions. In Table II, as shown below, solubility data is compared with the data previously determined for propofol derivatives 2a-c (Trapani G. Latrofa A, Franco M, Lopedota A, Maciocco E, Liso G. 1998. Water-soluble salts of amino acid esters of the anesthetic agent propofol. Int. J. Pharm. 175: 195-204.).

[4] = test system: pentylenetetrazole-induced seizures; test: Anticonvulsant activity against pentylenetetrazole-induced seizures; format: in vivo, rat; details: for Anticonvulsant activity, No. of rats protected/tested: pentylenetetrazole 55 mg/kg i.p.
Protocol: The anticonvulsant activity against pentylenetetrazole-induced seizures (55 mg/kg) was measured.

righting reflex = test: Anesthetic activity: loss of righting reflex; format: in vivo, rat; details: rats, i.p.; propofol and Diprivan 60 mg/kg, 6a 105 mg/kg (equimolar); mean ± s.e.m.
Protocol: The loss and reestablishment of righting responses, time of anesthesia induction, and sleeping time were also assessed. Rats (five per group) were treated with propofol and Diprivan®, both at a dose of 60 mg/kg, and an equimolar dose of compound 6a (105 mg/kg) and were continuously monitored for the loss of righting reflex (onset and duration). Propofol and its derivative 6a were dissolved in saline with a drop of Tween 80 per 5 mL and administered intraperitoneally in a volume of 0.3 mL per 100 g of body mass. Anesthesia induction (sleep onset) was defined as the time from drug administration to loss of righting reflex, whereas the sleeping time was the time from the loss of the righting reflex until the animals were plantigrade on all four legs. The significance of differences in behavioral data were analyzed by the ANOVA test.

[5] = target: T1, human α1β2γ2 GABAA receptors (Homo sapiens, UniProt P14867+P18507+P47870); test: Voltage-clamp electrophysiology in Xenopus laevis oocytes; format: cell-based; details: GABA EC20 (2-10 μM); for Effect on GABA-evoked chloride currents: concentration-dependent
T1 construct: expressed in transfected cells; host or cells: Xenopus laevis oocytes (nuclear injection of cDNAs in pCDM8)
Protocol: Values are expressed as mean (6-13 different oocytes)±s.e.m. percentage of the potentiation of the control response to GABA (EC20, 2-10 μM).
Complementary DNAs encoding the human α1, β2, and γ2 GABAA receptor subunits were subcloned into the pCDM8 expression vector (Invitrogen, San Diego, Calif.). The cDNAs were purified with the Promega Wizard Plus Miniprep DNA Purification System (Madison, Wis.) and then resuspended in sterile distilled water, divided into portions, and stored at −20° C. until used for injection. Stage V and VI oocytes were manually isolated from sections of Xenopus laevis ovary, placed in modified Barth's saline (MBS) containing 88 mM NaCl, 1 mM KCl, 10 mM Hepes-NaOH buffer (pH 7.5), 0.82 mM MgSO4, 2.4 mM NaHCO3, 0.91 mM CaCl2, and 0.33 mM Ca(NO3)2 and treated with 0.5 mg/mL of collagenase Type IA (Sigma) in collagenase buffer (83 mM NaCl, 2 mM KCl, 1 mM MgCl2, 5 mM Hepes-NaOH buffer, pH 7.5) for 10 min at room temperature, to remove the follicular layer. A mixture of GABAA receptor α1, β2, and γ2 subunit cDNAs (1.5 ng/30 nL) was injected into the oocyte nucleus using a 10 μL glass micropipette (10-15 μm tip diameter). The injected oocytes were cultured at 19° C. in sterile MBS supplemented with streptomycin (10 μg/mL), penicillin (10 U/mL), gentamicin (50 μg/mL), 0.5 mM theophylline, and 2 mM sodium pyruvate. Electrophysiological recordings began approximately 24 h following cDNA injection. Oocytes were placed in a 100-μL rectangular chamber and continuously perfused with MBS solution at a flow rate of 2 mL/min at room temperature. The animal pole of oocytes was impaled with two glass electrodes (0.5 to 3 MΩ) filled with filtered 3 M KCl and the voltage was clamped at −70 mV with an Axoclamp 2-B amplifier (Axon Instruments, Burlingame, Calif.). Currents were continuously recorded on a strip-chart recorder. Resting membrane potential usually ranged from −30 to −50 mV. Drugs were perfused for 20 s (7-10 s were required to reach equilibrium in the recording chamber). Intervals of 5 to 10 min were allowed between drug applications.

[6] = unwashed rat cortical membranes
[7] = propofol 40 mg/kg i.p. or equimolar dose

T1 sequence (P14867 28-456): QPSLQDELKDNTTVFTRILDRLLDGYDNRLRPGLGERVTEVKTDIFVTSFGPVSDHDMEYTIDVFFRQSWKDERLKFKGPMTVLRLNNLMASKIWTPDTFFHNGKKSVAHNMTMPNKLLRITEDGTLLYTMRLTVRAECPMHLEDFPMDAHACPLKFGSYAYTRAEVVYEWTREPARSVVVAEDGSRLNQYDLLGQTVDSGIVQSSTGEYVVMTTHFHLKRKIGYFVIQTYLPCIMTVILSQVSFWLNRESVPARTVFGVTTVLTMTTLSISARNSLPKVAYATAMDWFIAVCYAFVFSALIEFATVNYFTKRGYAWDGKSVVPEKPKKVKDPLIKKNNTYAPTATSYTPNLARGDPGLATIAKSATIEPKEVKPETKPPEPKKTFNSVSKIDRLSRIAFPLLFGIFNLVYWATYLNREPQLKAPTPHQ
T1 sequence (P47870 25-512 limits assumed): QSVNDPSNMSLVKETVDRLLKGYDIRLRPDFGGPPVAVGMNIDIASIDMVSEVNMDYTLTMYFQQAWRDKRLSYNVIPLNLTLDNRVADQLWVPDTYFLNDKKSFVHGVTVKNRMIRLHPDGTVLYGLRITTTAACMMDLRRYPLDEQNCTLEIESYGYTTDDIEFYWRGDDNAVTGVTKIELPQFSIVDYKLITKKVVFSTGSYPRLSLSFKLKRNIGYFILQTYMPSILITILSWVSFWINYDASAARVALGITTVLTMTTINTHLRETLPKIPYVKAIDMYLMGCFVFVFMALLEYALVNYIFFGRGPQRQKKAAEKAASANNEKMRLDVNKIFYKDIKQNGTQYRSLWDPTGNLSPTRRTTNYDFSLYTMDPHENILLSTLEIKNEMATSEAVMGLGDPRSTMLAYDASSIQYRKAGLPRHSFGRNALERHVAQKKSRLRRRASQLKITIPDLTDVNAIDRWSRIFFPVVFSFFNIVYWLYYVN
T1 sequence (P18507 40-475): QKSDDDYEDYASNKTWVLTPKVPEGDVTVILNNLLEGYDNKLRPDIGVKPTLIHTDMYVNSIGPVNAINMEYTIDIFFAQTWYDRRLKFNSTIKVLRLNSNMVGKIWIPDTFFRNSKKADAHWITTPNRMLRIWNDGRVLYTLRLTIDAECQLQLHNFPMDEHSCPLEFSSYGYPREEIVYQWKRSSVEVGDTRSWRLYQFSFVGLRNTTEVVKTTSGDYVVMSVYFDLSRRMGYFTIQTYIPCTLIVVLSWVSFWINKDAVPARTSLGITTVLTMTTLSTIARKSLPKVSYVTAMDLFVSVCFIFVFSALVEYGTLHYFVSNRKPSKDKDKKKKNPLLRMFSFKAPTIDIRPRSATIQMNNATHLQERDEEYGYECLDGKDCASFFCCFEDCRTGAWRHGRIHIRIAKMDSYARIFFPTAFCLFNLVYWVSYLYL

## CC(C)c1cccc(C(C)C)c1OC(=O)C1CCCCN1 (racemic) [Compound 6b, propofol pipecolinate]
[1]
  half-life: 7 h
[2]
  half-life: 0.0417 h
  Cleaved quantitatively to the parent drug in rat serum: cleaved quantitatively
GABAA receptor
  pIC50: 4.40
Porcine liver esterase; 13 U/mL
  half-life: 0.217 h
Porcine liver esterase
  Cleaved quantitatively to the parent drug in porcine liver esterase solution: cleaved quantitatively
[3]
  solubility at 72 h: 13.4 mg/mL (≈ 46.3 mM)

## CC(C)c1cccc(C(C)C)c1OC(=O)C1CCCNC1 (racemic) [Compound 6c]
[1]; read-out: Half-lives at 37° C., pH 7.4 buffer (stability class)
  half-life at 48 h: > 48 h
[2]
  half-life: 6 h
  Cleaved quantitatively to the parent drug in rat serum: not
GABAA receptor
  pIC50: 3.82
GABAA receptor; [6]
  Doses at which [35S]TBPS binding is reduced: higher than 100 μM
Porcine liver esterase; 13 U/mL
  half-life: 3 h
Porcine liver esterase
  Cleaved quantitatively to the parent drug in porcine liver esterase solution: not
[3]
  solubility at 72 h: 525 mg/mL (≈ 1810 mM)

## CC(C)c1cccc(C(C)C)c1O [Compound 1, 2,6-diisopropylphenol, reference compound]
GABAA receptor
  pIC50: 5.38
[4]; [7]
  Anticonvulsant activity, No. of rats protected/tested: 10/10
  Protection of animals against pentylenetetrazole-induced convulsions: protected completely
Righting reflex
  Loss of righting reflex, LRR, Duration: 2245 ± 252 s
  Loss of righting reflex, LRR, Onset: 114.4 ± 9.5 s
[3]
  solubility at 72 h: ~0.15 mg/mL (≈ 0.841 mM)

## CC(C)c1cccc(C(C)C)c1OC(=O)[C@@H]1CCCN1 [Compound 6a, 2.6-diisopropylphenyl pirrolidin-2-carboxylate hydrochloride]
[1]
  half-life: 6 h
[2]
  half-life: 0.283 h
  Cleaved quantitatively to the parent drug in rat serum: cleaved quantitatively
GABAA receptor; hydrochloride
  pIC50: 4.50
[4]; [7]
  Anticonvulsant activity, No. of rats protected/tested: 10/10
  Protection of animals against pentylenetetrazole-induced convulsions: protected completely
Porcine liver esterase; 13 U/mL
  half-life: 0.283 h
Porcine liver esterase
  Cleaved quantitatively to the parent drug in porcine liver esterase solution: cleaved quantitatively
[5]
  Concentration of maximal effect on GABA-evoked chloride currents: 50 µM
  Effect on GABA-evoked chloride currents: enhanced
Righting reflex
  Loss of righting reflex, LRR, Duration: 2403 ± 592 s
  Loss of righting reflex, LRR, Onset: 162.7 ± 4.3^c,d sec
[3]
  solubility at 72 h: 350 mg/mL

## CC(C)c1cccc(C(C)C)c1OC(=O)C1CCNCC1 [Compound 6d, propofol isonipecotate]
GABAA receptor; [6]
  Effect on [35S]TBPS binding: increase of [^35S]TBPS binding
[4]; dose equimolar to 40 mg/kg propofol, i.p.
  Protection of animals against pentylenetetrazole-induced convulsions: 60%
[4]; [7]
  Anticonvulsant activity, No. of rats protected/tested: 6/10
Porcine liver esterase; 13 U/mL
  Half-lives at 37° C., Porcine liver esterase (13 U/mL): 45 h
Porcine liver esterase
  Cleaved quantitatively to the parent drug in porcine liver esterase solution: not
[5]
  Concentration of maximal effect on GABA-evoked chloride currents: 100 µM
  Effect on GABA-evoked chloride currents: diminished
[3]
  Solubility (mg/mL) in deionized water: 29.7 mg/mL (≈ 103 mM)
